This note sets out measurements from ChEMBL document CHEMBL1201862, “PubChem BioAssay data set” (2004).

The source made the active and inactive calls. The rule behind the calls is not given here.

The target in the assay is Multidrug resistance protein CDR2 (Candida albicans (strain SC5314 / ATCC MYA-2876) (Yeast), UniProt P78595). Briefly: inhibition of Nile Red efflux via Candida CDR2 – S. cerevisiae AD1-8u, singleplex, Cherry Pick1 hits, dose response (AID 588604). Format: functional.
Chain of Multidrug resistance protein CDR2 (P78595 whole entry): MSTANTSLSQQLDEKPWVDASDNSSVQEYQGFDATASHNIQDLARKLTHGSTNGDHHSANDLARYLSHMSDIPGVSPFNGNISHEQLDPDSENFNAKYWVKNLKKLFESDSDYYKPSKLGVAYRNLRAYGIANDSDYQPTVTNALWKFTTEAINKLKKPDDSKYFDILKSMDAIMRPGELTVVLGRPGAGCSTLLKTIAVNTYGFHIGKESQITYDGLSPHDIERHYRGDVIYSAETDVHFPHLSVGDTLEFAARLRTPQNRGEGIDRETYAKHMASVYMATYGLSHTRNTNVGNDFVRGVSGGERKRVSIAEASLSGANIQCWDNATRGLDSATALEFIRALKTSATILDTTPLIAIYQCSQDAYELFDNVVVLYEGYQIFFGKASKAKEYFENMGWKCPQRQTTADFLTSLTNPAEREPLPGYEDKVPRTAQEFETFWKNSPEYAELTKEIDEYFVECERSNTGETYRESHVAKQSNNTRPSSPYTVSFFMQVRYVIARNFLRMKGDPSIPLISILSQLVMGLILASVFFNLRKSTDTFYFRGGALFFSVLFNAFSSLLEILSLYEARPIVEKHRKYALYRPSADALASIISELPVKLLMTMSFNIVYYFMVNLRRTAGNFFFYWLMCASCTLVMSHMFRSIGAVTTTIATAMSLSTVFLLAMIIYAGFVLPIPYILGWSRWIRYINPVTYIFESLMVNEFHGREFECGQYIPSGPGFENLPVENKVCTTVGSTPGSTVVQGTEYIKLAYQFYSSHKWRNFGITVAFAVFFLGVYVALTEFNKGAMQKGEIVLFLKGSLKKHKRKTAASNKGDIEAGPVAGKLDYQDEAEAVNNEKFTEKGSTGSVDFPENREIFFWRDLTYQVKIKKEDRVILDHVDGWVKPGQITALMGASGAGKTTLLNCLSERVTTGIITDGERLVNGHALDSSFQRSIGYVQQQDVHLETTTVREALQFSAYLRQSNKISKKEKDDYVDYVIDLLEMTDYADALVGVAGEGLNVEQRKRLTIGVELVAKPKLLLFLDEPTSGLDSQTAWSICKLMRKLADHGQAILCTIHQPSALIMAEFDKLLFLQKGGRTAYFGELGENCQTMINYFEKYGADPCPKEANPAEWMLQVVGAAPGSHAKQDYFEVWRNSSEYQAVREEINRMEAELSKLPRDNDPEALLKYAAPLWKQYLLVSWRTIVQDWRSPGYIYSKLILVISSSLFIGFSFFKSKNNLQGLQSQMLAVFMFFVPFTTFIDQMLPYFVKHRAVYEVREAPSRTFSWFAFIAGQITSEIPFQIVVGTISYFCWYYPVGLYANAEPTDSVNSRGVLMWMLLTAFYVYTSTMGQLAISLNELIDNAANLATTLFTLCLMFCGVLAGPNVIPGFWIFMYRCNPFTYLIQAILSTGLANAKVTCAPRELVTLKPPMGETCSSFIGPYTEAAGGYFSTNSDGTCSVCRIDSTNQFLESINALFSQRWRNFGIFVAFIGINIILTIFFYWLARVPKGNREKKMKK

A word on the EC50: it is the concentration needed to bring the measured effect to its halfway point. Consider `O=C(N=C(NC(=O)c1ccccc1)Nc1nc2ccccc2o1)c1ccccc1`, for which the EC50 was 1.53 µM (active).
